Assay results reported in publication PMC12366525, “Characterization of allosteric modulators that disrupt androgen receptor co-activator protein-protein interactions to alter transactivation–Drug leads for metastatic castration resistant prostate cancer” (SLAS discovery : advancing life sciences R & D, 2023).
“And” between values parts separate entries of the source, which are not always exact repeats. Identical values can stand only once. Like-named read-outs stand apart in the source and are kept apart here.

Columns and labels:
Assay type in all cases: cell-based
[1] = target: T1, AR-V7 (Homo sapiens, UniProt P10275); test: PSA6.1 promoter driven luciferase reporter assay in PC3-AR-V7-GFP cells; conditions: constitutive, 24 h; read-out: PC-3-ARV7-GFP PSA6.1-Luc Reporter IC50
T1 construct: expressed in transfected cells; host or cells: PC3 cells stably expressing AR-V7-GFP
T1 sequence (P10275 1-644 isoform P10275-3): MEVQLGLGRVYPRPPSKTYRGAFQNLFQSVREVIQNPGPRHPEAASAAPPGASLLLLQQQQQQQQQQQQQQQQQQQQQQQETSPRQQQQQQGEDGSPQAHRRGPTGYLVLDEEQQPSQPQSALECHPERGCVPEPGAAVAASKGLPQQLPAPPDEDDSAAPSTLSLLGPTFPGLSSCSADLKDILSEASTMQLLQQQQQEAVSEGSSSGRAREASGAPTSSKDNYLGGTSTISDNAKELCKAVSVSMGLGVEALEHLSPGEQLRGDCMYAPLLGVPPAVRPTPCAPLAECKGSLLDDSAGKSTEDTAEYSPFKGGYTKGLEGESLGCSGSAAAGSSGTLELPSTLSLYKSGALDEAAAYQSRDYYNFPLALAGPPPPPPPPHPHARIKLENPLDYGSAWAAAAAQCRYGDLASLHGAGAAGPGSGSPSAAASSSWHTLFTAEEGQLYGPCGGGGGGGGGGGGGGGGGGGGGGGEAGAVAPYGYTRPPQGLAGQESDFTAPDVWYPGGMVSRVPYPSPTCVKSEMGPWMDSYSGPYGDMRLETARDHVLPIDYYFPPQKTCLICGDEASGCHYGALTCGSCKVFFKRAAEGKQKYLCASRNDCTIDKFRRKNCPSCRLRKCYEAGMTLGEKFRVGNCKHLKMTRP
Description: PC3-AR-V7-GFP cells were bulk transfected with a mixture of Fugene HD and the PSA-6.1-Luc reporter plasmid (20 ng/well) combined at a 3:1 (μL:μg) ratio in Opti-MEM (Gibco, Gaithersburg, MD) that had been incubated for 25 min at RT before being added to PC3-AR-V7-GFP cells that were suspended in RPMI 1640 (Gibco) media containing 1% L-glutamine (Invitrogen), and 10% fetal bovine serum (Gemini Bio-products). Bulk transfected PC3-AR-V7-GFP cells were seeded into white opaque 384-well assay plates (Greiner Bio-one, #781080) at 3000 cells per well in a volume of 40 μL and incubated at 5% CO2, 37 °C, and 95% humidity for 24 h. After 24 h, 5 μL of compounds were transferred to assay wells and the plates were returned to the incubator for an additional 24 h before 25 μL of BrightGlo luciferase reagent (Promega) was added to the wells and the RLU’s were captured on a SpectraMax M5e plate reader (Molecular Devices LLC) as described previously.

[2] = M2H viability counter screen; conditions: human, HEK 293 cells; cytotoxicity counter screen; read-out: M2H viability CS GI50
[3] = tested on: 22Rv1 cells; test: Prostate cancer cell line growth inhibition assay, 22Rv1; conditions: read-out: 22Rv1 GI50 (AR+)
Description: (§1) The PC-3, DU-145, LNCaP, C4–2, and 22Rv1 PC cell line growth inhibition assays have been described previously. On day 1, each PC cell line was harvested, counted, and seeded into two 384-well assay plates, a time zero (T0) and a time 72 h (T72) plate. PC cell lines were all seeded at 1000 cells per well in 45 μL of tissue culture media in uncoated white clear bottom 384-well assay plates (VWR, # 82050–076) using a Matrix electronic multichannel pipette (Thermo Fisher Scientific, Waltham, MA) and cultured overnight at 37 °C, 5% CO2, and 95% humidity. On day 2, 25 μL of the Cell Titer Glo (CTG) (Promega Corporation, Madison, WI) detection reagent was dispensed into the wells of the T0 assay plate using a Matrix electronic multichannel pipette, and the RLUs were captured on the SpectraMax M5e (Molecular Devices LLC, Sunnyvale, CA) microtiter plate reader. Also on day 2, 5 μL of compounds were transferred into the test wells of the T72 384-well assay plates which were returned to the incubator for 72 h. Control wells received DMSO alone. On day 5, 25 μL of the CTG detection reagent was dispensed into the wells of the T72 assay plate using a Matrix electronic multichannel pipette, and the RLU’s were captured on the SpectraMax M5e microtiter plate reader platform.
(§2) In 384-well assays, DMSO minimum (n = 32) and maximum (n = 32) plate control wells were utilized to calculate signal-to-background ratios (S:B) and Z’-factor coefficient assay performance quality control statistics, and to normalize the signals of compound treated wells and to represent 0% and 100% respectively. For the 96-well AR-LBD H^3-DHT radioligand binding assay, eight minimum and maximum plate control wells were utilized to normalize the data. For the PC cell line growth inhibition assays we used the DMSO control data from the T0 and T72 assay plates to assess the dynamic range of the T0 to T72 cell growth, and to calculate S:B ratios and Z’-factor coefficient statistics for the assay signal window (T0 to T72). To normalize the 72 h compound exposure PC growth inhibition data, the signals from the compound treated wells were processed and expressed as% of the T72 DMSO plate controls. IC50 and GI50 values for each of the bioassays were calculated using Graph-Pad Prism 9 software to plot and fit data to curves using the Sigmoidal dose response variable slope equation Y = Bottom + [Top-Bottom]/ [1 + 10^^(LogEC50-X)*HillSlope].

[4] = tested on: PC-3 cells; test: Prostate cancer cell line growth inhibition assay, PC-3; conditions: read-out: PC3 GI50 (AR−)
Description: as §1, §2

[5] = PC-3-ARV7-GFP viability counter screen; conditions: human, PC3-AR-V7-GFP cells; cytotoxicity counter screen; read-out: PC-3-ARV7-GFP viability CS GI50
[6] = tested on: LNCaP cells; test: Prostate cancer cell line growth inhibition assay, LNCaP; conditions: 72 h, read-out: LNCap GI50 (AR+)
Description: as §1, §2

Structure (SMILES): Cc1ccccc1-c1cc(O)c2c(c1)CN(c1nc(C(N)=O)cs1)CCO2 [S1–1]
- IC50 [1]: 33.5 µM
- GI50 [2]: 58.6 µM
- GI50 ([3]; Homo sapiens, 22Rv1, 72 h): 55.5 µM
- GI50 ([4]; 72 h): 70.3 µM
- GI50 ([4]; Homo sapiens, PC-3, 72 h): 70 µM
- GI50 [5]: > 100 µM
- GI50 ([6]; Homo sapiens, LNCaP): 28.9 µM

Structure (SMILES): Cc1ccccc1-c1cc(O)c2c(c1)CN(c1nccs1)CCO2 [S1–3]
- GI50 ([3]; 72 h): 75.2 µM
- GI50 ([4]; 72 h): > 100 µM
- GI50 [6]: 43.4 µM

Structure (SMILES): Cc1nsc(NC(=O)N2CCC(Sc3ccccc3C)CC2)n1 [S2–6]
- IC50 [1]: 8 µM and 7.88 µM
- GI50 [2]: > 100 µM
- GI50 ([3]; Homo sapiens, 22Rv1, 72 h): 17.6 µM
- GI50 ([4]; Homo sapiens, PC-3, 72 h): > 100 µM
- GI50 [5]: > 100 µM
- GI50 ([6]; Homo sapiens, LNCaP): 19.2 µM

Structure (SMILES): Cc1c(-c2ccccc2F)[nH]c2ccc(CNC(=O)CCc3cn[nH]c3)cc12 [S3–11]
- IC50 [1]: 10.7 µM
- GI50 [2]: 69.2 µM
- GI50 ([3]; Homo sapiens, 22Rv1, 72 h): 15 µM
- GI50 ([4]; Homo sapiens, PC-3, 72 h): 32.6 µM
- GI50 [5]: > 100 µM
- GI50 ([6]; Homo sapiens, LNCaP): 7.41 µM

Structure (SMILES): Cc1c(-c2ccccc2F)[nH]c2ccc(CNC(=O)CCc3cnccn3)cc12 [S3–12]
- IC50 [1]: 8.17 µM
- GI50 [2]: > 100 µM
- GI50 ([3]; Homo sapiens, 22Rv1, 72 h): 20.5 µM
- GI50 ([4]; Homo sapiens, PC-3, 72 h): 18.4 µM
- GI50 [5]: > 100 µM
- GI50 ([6]; Homo sapiens, LNCaP): 1.92 µM

Structure (SMILES): CC(=O)NCCC(=O)NCc1ccc2[nH]c(-c3ccccc3F)c(C)c2c1 [S3–13]
- IC50 [1]: 51.7 µM
- GI50 [2]: > 100 µM
- GI50 ([3]; Homo sapiens, 22Rv1, 72 h): > 100 µM
- GI50 ([4]; Homo sapiens, PC-3, 72 h): > 100 µM
- GI50 [5]: > 100 µM
- GI50 ([6]; Homo sapiens, LNCaP): 67.2 µM

Structure (SMILES): Cc1c(-c2ccccc2F)[nH]c2ccc(CNC(=O)c3ccc(CO)o3)cc12 [S3–14]
- IC50 [1]: 43.9 µM
- GI50 [2]: > 100 µM
- GI50 ([3]; Homo sapiens, 22Rv1, 72 h): 102 µM
- GI50 ([4]; Homo sapiens, PC-3, 72 h): > 100 µM
- GI50 [5]: > 100 µM
- GI50 ([6]; Homo sapiens, LNCaP): 31.1 µM

Structure (SMILES): Cc1c(-c2ccc(F)cc2)[nH]c2ccc(CNC(=O)c3ccc(CO)o3)cc12 [S3–15]
- IC50 [1]: 10.1 µM
- GI50 [2]: > 100 µM
- GI50 ([3]; Homo sapiens, 22Rv1, 72 h): 17.4 µM
- GI50 ([4]; Homo sapiens, PC-3, 72 h): 23.7 µM
- GI50 [5]: > 100 µM
- GI50 ([6]; Homo sapiens, LNCaP): 14 µM
